Measured values as given in ChEMBL document CHEMBL3217540, “New 3-amidinophenylalanine-derived inhibitors of matriptase” (Medchemcomm, 2012).

Legend:
[1] = molecular target: T1, Suppressor of tumorigenicity 14 protein (Homo sapiens, UniProt Q9Y5Y6); assay: Inhibition of matriptase (unknown origin) using MeSO2-D-Cha-Gly-Arg-pNA as substrate
T1 sequence (Q9Y5Y6 whole entry): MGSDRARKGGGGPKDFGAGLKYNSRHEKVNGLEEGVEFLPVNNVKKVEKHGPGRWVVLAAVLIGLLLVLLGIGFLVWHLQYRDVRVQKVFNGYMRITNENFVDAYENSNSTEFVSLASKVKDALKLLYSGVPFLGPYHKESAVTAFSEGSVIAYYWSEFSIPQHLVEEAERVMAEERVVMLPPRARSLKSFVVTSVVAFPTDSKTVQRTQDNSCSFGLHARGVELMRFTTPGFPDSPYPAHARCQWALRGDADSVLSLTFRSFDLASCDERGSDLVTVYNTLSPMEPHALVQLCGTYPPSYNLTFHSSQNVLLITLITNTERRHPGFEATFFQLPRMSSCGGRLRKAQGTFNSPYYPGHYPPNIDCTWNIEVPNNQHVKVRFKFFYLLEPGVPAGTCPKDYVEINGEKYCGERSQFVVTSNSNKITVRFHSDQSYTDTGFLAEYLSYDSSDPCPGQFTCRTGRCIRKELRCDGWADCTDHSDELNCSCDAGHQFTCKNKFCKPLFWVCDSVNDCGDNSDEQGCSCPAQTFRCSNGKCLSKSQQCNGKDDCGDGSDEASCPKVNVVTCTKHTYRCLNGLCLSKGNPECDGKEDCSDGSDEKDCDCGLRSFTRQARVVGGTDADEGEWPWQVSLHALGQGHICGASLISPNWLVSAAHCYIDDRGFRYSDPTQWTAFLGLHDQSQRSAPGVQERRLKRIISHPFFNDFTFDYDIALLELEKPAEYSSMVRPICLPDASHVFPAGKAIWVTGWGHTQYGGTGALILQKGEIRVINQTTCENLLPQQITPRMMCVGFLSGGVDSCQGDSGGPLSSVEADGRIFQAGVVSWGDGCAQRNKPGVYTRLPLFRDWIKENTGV

[2] = molecular target: Coagulation factor X (Homo sapiens, UniProt P00742); assay: Inhibition of human factor 10a using CH3OCO-D-Cha-Gly-Arg-pNA as substrate
[3] = molecular target: Prothrombin (Bos taurus, UniProt P00735); assay: Inhibition of bovine thrombin using MeSO2-D-Cha-Gly-Arg-pNA as substrate
[4] = molecular target: T2, Transmembrane protease serine 6 (Homo sapiens, UniProt Q8IU80); assay: Inhibition of matriptase-2 (unknown origin) expressed in HEK293 cells using ln-Ala-Arg-a-Arg-para-nitroanilide as substrate by UV-vis spectrophotometry; type: cell-based
T2 sequence (Q8IU80 whole entry): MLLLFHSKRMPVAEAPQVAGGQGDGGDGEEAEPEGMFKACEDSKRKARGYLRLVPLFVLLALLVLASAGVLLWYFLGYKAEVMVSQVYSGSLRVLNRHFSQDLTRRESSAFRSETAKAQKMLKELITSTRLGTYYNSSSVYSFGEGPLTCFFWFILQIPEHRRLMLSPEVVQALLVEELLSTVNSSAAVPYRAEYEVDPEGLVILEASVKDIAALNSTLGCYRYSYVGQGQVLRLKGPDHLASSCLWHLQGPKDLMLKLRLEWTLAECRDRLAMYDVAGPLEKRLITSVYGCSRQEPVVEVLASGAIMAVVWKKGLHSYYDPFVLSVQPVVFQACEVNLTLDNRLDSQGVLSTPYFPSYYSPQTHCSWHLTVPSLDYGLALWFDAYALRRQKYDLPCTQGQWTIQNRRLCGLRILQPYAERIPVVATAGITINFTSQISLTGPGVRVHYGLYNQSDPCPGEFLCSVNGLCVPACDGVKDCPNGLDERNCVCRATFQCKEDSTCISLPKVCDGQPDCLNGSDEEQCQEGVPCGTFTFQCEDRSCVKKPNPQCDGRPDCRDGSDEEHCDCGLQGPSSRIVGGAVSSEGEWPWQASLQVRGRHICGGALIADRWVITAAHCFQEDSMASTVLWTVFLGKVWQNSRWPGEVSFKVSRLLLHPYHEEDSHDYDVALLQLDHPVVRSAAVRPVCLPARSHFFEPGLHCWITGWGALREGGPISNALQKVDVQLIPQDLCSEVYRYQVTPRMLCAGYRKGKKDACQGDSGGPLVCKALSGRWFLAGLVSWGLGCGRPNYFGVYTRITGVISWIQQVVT

[5] = tested on: HEK293; assay: Selectivity ratio of Ki for matriptase-2 (unknown origin) expressed in HEK293 cells to Ki for matriptase (unknown origin); type: cell-based; conditions: Homo sapiens
[6] = species: Homo sapiens; assay: Selectivity ratio of Ki for human uPA to Ki for matriptase (unknown origin)
[7] = species: Homo sapiens; assay: Selectivity ratio of Ki for recombinant human airway trypsin-like protease to Ki for matriptase (unknown origin)

Coagulation factor X, sequence (P00742 41-179 limits assumed): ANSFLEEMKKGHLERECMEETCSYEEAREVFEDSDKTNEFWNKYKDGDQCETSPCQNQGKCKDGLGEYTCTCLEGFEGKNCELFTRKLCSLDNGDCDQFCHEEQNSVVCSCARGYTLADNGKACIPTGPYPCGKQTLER
Coagulation factor X, sequence (P00742 235-488 limits assumed): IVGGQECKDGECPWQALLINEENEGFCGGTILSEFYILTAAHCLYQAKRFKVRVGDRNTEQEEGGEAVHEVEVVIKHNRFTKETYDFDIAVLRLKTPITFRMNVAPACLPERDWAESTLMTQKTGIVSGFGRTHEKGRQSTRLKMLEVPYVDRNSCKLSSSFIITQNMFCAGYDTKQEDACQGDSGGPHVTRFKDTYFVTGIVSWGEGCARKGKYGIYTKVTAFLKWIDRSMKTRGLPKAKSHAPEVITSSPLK

- Ki [1]: 1 nM
- Ki [2]: 110 nM
- Ki [3]: 30 nM
- Ki [4]: 310 nM
- Ratio Ki [6]: 20
- Ratio Ki [7]: 20
SMILES: COc1ccc(-c2cccc(S(=O)(=O)N[C@@H](Cc3cccc(C(=N)N)c3)C(=O)N3CCC(CCN)CC3)c2)c(OC)c1
- Ratio Ki [5]: 20
